We go through 8 molecules from patent publication US10633353B2, “Polymerizable compound, composition, polymer, optically anisotropic body, liquid crystal display element, and organic EL display” (DIC Corporation, priority 2014, dated 2020).

A short description of data set [1]: Preservation stability of the coating liquid. It counts as physicochemical. The method in brief:
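Coating liquid stored 2 months at 0° C shielded from light, then graded A–E. Grades rest on visual appearance, change in composition by GPC, and weight ratio of insoluble components to total solids.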

Data set [2] can be described thus: Optical stability of the optical film (xenon-lamp irradiation). It counts as physicochemical. The settings on record: summary in words. As to the method: The coating liquid was applied to a glass substrate by spin coating, the glass substrate including a rubbed polyimide layer deposited thereon. The glass substrate was then placed on a hot plate, dried at 80° C. for 1 minute, and further dried at 140° C. for another 1 minute. Subsequently, irradiation with ultraviolet radiation at 1000 mJ/cm and 140° C. was performed.
The optical film was irradiated with light at 50 mW/cm^2, 25° C., and 100 J using a xenon-lamp irradiation testing machine (SUNTEST XLS, produced by Atlas). The optical stability of the optical film was evaluated on a scale of A to E below.
A: No change in the film was visually confirmed. An inspection of the optical film with a polarized light microscope also confirmed no defects.
B: Although no change in the film was visually confirmed, an inspection of the optical film with a polarized light microscope confirmed slight orientation defects.
C: Slight yellowing of the film was visually confirmed.
D: Yellowing of the film was visually confirmed. In addition, the optical film was partly detached from the glass substrate.
E: Yellowing of the entire film was visually confirmed. In addition, the optical film was detached from the glass substrate.

Setting [3] is: coating liquid stored for 2 months shielded from light at 0° C., appearance and GPC.

For the molecule `C=CC(=O)OCCCCCCOc1ccc(OC(=O)C2CCC(C(=O)OCCc3ccc(OC(=O)C4CCC(C(=O)Oc5ccc(OCCCCCCOC(=O)C=C)cc5)CC4)c(/C=N/N(CCCCCC)c4nc5ccccc5s4)c3)CC2)cc1` (stereo not shown) [1-cmn-82], the Preservation stability result is reported as “A (No visual change in the appearance of the coating liquid was confirmed. A GPC analysis of the coating liquid confirmed that the change in the composition of the coating liquid was 1% or less.)” in data set [1] (setting [3]) and “high” in data set [1] (summary in words). Also, the optical stability entry in data set [2] was “high”.
`C=CC(=O)OCCCCCCOc1ccc(C(=O)OCCc2ccc(OC(=O)c3ccc(OCCCCCCOC(=O)C=C)cc3)c(/C=N/Nc3ccc(C#Cc4ccccc4)cc3)c2)cc1` [1-c-31]: the Preservation stability entry in data set [1] (setting [3]) is “B (No visual change in the appearance of the coating liquid was confirmed. A GPC analysis of the coating liquid confirmed that the change in the composition of the coating liquid was 2% or less.)”.
Still for that read-out and setting: under `C=CC(=O)OCCCCCCOc1ccc(C(=O)OCCc2ccc(OC(=O)c3ccc(OCCCCCCOC(=O)C=C)cc3)c(/C=N/Nc3nc4ccc5ccccc5c4s3)c2)cc1` [1-c-33] stands “B (No visual change in the appearance of the coating liquid was confirmed. A GPC analysis of the coating liquid confirmed that the change in the composition of the coating liquid was 2% or less.)”; under `C=CC(=O)OCCCOc1ccc(C(=O)OCCc2ccc(OC(=O)c3ccc(OCCCOC(=O)C=C)cc3)c(/C=N/Nc3nc4cc(Cl)ccc4s3)c2)cc1` [1-c-24], “B (No visual change in the appearance of the coating liquid was confirmed. A GPC analysis of the coating liquid confirmed that the change in the composition of the coating liquid was 2% or less.)”; under `C=CC(=O)OCCCCCCOc1ccc(OC(=O)C2CCC(COc3ccc(OCC4CCC(C(=O)Oc5ccc(OCCCCCCOC(=O)C=C)cc5)CC4)c(/C=N/N(C(=O)C=C)c4nc5ccccc5s4)c3)CC2)cc1` (stereo not shown) [1-cmn-108], “A (No visual change in the appearance of the coating liquid was confirmed. A GPC analysis of the coating liquid confirmed that the change in the composition of the coating liquid was 1% or less.)”.
For the molecule `C=CC(=O)OCCCCCCOc1ccc(C#Cc2ccc(C#Cc3ccc(OCCCCCCOC(=O)C=C)cc3)c(/C=N/Nc3nc4ccccc4s3)c2)cc1` [1-c-68], the Preservation stability result in data set [1] (setting [3]) is reported as “B (No visual change in the appearance of the coating liquid was confirmed. A GPC analysis of the coating liquid confirmed that the change in the composition of the coating liquid was 2% or less.)”.
For the molecule `C=CC(=O)OCCCCCCOc1ccc(C(=O)OCCc2ccc(OC(=O)c3ccc(OCCCCCCOC(=O)C=C)cc3)c(/C=N/Nc3ccc4ccccc4c3)c2)cc1` [1-c-32], the Preservation stability entry in data set [1] (setting [3]) is reported as “B (No visual change in the appearance of the coating liquid was confirmed. A GPC analysis of the coating liquid confirmed that the change in the composition of the coating liquid was 2% or less.)”.
With `C=CC(=O)OCCCOc1ccc(CCC(=O)Oc2ccc(OC(=O)CCc3ccc(OCCCOC(=O)C=C)c(OC)c3)c(/C=N/Nc3nc4ccccc4s3)c2)cc1OC` [1-c-52], the Preservation stability entry in data set [1] (setting [3]) is given as “A (No visual change in the appearance of the coating liquid was confirmed. A GPC analysis of the coating liquid confirmed that the change in the composition of the coating liquid was 1% or less.)”.
